Laboratory results published in ChEMBL document CHEMBL4145541, “Tricyclic pyrazolo[1,5-d][1,4]benzoxazepin-5(6H)-one scaffold derivatives: Synthesis and biological evaluation as selective BuChE inhibitors” (Eur J Med Chem, 2018).
The source made the active and inactive calls. The rule behind the calls is not given here.

Assays:
[1] = biological target: acetylcholinesterase (AChE) (Electrophorus electricus, UniProt O42275); assay: (§1) Inhibition of electric eel AChE at 20 uM using acetylthiocholine iodide as substrate preincubated for 20 mins followed by substrate addition and measured after 20 mins by Ellman's method relative to control; details: electric eel acetylcholinesterase enzyme, probe acetylthiocholine iodide
Sequence of acetylcholinesterase (AChE) (O42275 whole entry): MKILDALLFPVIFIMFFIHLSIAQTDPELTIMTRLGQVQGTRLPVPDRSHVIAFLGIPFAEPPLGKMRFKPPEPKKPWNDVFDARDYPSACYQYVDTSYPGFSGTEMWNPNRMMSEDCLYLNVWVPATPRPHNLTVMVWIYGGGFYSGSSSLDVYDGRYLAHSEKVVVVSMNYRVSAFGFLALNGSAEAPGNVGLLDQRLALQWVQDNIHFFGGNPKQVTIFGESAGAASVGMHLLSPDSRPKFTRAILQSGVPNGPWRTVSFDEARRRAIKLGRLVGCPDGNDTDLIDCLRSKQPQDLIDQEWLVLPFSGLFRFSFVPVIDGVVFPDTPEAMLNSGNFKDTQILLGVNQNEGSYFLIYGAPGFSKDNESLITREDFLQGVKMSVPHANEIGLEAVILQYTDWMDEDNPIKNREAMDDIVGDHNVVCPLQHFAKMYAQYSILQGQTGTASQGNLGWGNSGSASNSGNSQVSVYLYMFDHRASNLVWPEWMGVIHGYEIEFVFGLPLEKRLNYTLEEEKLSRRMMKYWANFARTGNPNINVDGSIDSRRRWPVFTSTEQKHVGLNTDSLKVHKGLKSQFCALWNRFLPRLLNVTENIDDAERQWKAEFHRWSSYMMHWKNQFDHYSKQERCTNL

[2] = biological target: Cholinesterase (Equus caballus) (UniProt P81908); assay: Inhibition of equine serum BuChE at 20 uM using butyrylthiocholine iodide as substrate preincubated for 20 mins followed by substrate addition and measured after 20 mins by Ellman's method relative to control
Sequence of Cholinesterase (Equus caballus) (P81908 whole entry): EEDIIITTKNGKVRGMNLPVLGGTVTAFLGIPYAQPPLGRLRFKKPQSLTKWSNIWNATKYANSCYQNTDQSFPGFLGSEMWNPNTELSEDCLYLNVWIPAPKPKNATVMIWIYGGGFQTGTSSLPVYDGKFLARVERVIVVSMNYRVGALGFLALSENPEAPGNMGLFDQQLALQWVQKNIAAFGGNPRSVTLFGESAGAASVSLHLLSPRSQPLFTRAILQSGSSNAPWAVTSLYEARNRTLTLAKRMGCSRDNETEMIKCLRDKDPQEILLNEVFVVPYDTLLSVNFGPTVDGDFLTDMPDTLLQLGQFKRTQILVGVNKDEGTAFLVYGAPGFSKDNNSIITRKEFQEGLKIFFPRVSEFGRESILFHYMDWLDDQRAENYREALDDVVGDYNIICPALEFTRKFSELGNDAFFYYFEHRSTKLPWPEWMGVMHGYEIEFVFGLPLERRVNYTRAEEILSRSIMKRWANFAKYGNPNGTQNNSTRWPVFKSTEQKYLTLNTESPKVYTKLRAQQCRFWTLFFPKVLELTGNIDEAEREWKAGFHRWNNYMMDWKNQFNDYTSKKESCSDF

Cholinesterase [3] = biological target: T1, Cholinesterase (Equus caballus, UniProt P81908); assay: Inhibition of equine serum BuChE using butyrylthiocholine iodide as substrate preincubated for 20 mins followed by substrate addition and measured after 20 mins by Ellman's method
T1 sequence (P81908 whole entry): as above

Cholinesterase [4] = biological target: T1, Cholinesterase; assay: Mixed-type inhibition of equine serum BuChE using varying levels of butyrylthiocholine iodide as substrate preincubated for 20 mins followed by substrate addition and measured after 20 mins by Lineweaver-Burk plot analysis; details: read-out: Ki(app)
[5] = Octanol-water partition coefficient, log P of the compound at pH 7.4 after 24 hrs by shake flask method; type: physicochemical
Acetylcholinesterase = Acetylcholinesterase (Electrophorus electricus, UniProt O42275); assay: as §1; details: 20 min, 20 µM
Sequence of Acetylcholinesterase (O42275 whole entry): as the sequence (O42275 whole entry) above

Cholinesterase [6] = biological target: T1, Cholinesterase; assay: Non-competitive inhibition of equine serum BuChE using varying levels of butyrylthiocholine iodide as substrate preincubated for 20 mins followed by substrate addition and measured after 20 mins by Lineweaver-Burk plot analysis; details: read-out: Ki(app)
[7] = Cytotoxicity against rat PC12 cells assessed as cell viability up to 50 uM after 24 hrs by MTT assay relative to control
PC-12 = assay: Neuroprotection against H2O2-induced oxidative stress in rat PC12 cells assessed as cell viability at 25 uM preincubated for 3 hrs followed by H2O2 addition and measured after 24 hrs by MTT assay relative to control; type: functional; details: read-out: Activity

Compound | inhibition at 20 min, 20 µM [1] [%] | inhibition [2] | inhibition (INH) (Acetylcholinesterase) | further results
COc1cccc2c1OCC(=O)N1N=C(C)CC21 (centres undefined) | 34 | 2% | – | –
CCC1Oc2c(Br)cc(Br)cc2C2CC(C)=NN2C1=O (centres undefined) | 41 | – | – | IC50 (Cholinesterase [3]): 2.92 µM; Ki (Cholinesterase [4]): 7.6 µM; logD at 24 h [5]: 1.08
CC1=NN2C(=O)COc3c(Br)cc(Cl)cc3C2C1 (centres undefined) | 32 | 18% | – | –
CCC1Oc2ccc(Br)cc2C2CC(C)=NN2C1=O (centres undefined) | – | 39% | Not Active | logD at 24 h [5]: 1.11
CC1=NN2C(=O)COc3ccc(Br)cc3C2C1 (centres undefined) | 29 | inactive | – | –
CCC1Oc2c(Br)cc(Cl)cc2C2CC(C)=NN2C1=O (centres undefined) | – | – | Not Active | IC50 (Cholinesterase [3]): 2.04 µM; Ki (Cholinesterase [6]): 1.5 µM; viability at 24 h ([7]; PC12 cells): > 90%; viability at 25 µM (PC-12): 70%; logD at 24 h [5]: 1.57
CCC1Oc2c(Cl)cc(Cl)cc2C2CC(C)=NN2C1=O (centres undefined) | 26 | – | – | IC50 (Cholinesterase [3]): 4.67 µM; logD at 24 h [5]: 1.12
CC[C@H]1Oc2c(Br)cc(Cl)cc2C2CC(C)=NN2C1=O (some centres undefined) | – | – | Not Active | IC50 (Cholinesterase [3]): 1.14 µM
CC1=NN2C(=O)COc3c(Cl)cc(Cl)cc3C2C1 (centres undefined) | 25 | 31% | – | –
CC1=NN2C(=O)COc3c(Br)cc(Br)cc3C2C1 (centres undefined) | – | 24% | Not Active | –
CC1Oc2ccc(Cl)cc2C2CC(c3ccc(F)cc3)=NN2C1=O (centres undefined) | – | 17% | Not Active | –
CC1=NN2C(=O)COc3ccc(C)cc3C2C1 (centres undefined) | 24 | inactive | – | –
CC1=NN2C(=O)C(C)Oc3ccc(Cl)cc3C2C1 (centres undefined) | – | 39% | Not Active | –
CC1=NN2C(=O)C(C)Oc3c(Br)cc(Br)cc3C2C1 (centres undefined) | – | 11% | Not Active | –
CC[C@@H]1Oc2c(Br)cc(Cl)cc2C2CC(C)=NN2C1=O (some centres undefined) | – | – | Not Active | IC50 (Cholinesterase [3]): 20.4 µM
COc1cccc2c1OC(C)C(=O)N1N=C(C)CC21 (centres undefined) | 24 | inactive | – | –
CC1Oc2ccc(Br)cc2C2CC(c3ccc(F)cc3)=NN2C1=O (centres undefined) | – | 45% | Not Active | –
CC1=NN2C(=O)C(C)Oc3c(Cl)cc(Cl)cc3C2C1 (centres undefined) | 22 | – | – | IC50 (Cholinesterase [3]): 5.95 µM; logD at 24 h [5]: 2.49
CC1=NN2C(=O)C(C)Oc3c(Br)cc(Cl)cc3C2C1 (centres undefined) | – | – | Not Active | IC50 (Cholinesterase [3]): 11.1 µM; logD at 24 h [5]: 2.18
COc1cc2c(cc1OC)C(=O)C(CC1CCN(Cc3ccccc3)CC1)C2 (centres undefined) [DONEPEZIL] | – | – | – | viability at 24 h ([7]; pc-12): > 90%
CC1=NN2C(=O)COc3ccc(Cl)cc3C2C1 (centres undefined) | 2 | inactive | – | –
CC1Oc2c(Cl)cc(Cl)cc2C2CC(c3ccco3)=NN2C1=O (centres undefined) | 28 | 23% | – | –
CC1=NN2C(=O)C(C)Oc3ccc(Br)cc3C2C1 (centres undefined) | 23 | 18% | – | –
CC1=NN2C(=O)C(C)Oc3ccc(C)cc3C2C1 (centres undefined) | 22 | 1% | – | –
O=C1COc2ccc(Br)cc2C2CC(c3ccco3)=NN12 (centres undefined) | 25 | 20% | – | –
CCC1Oc2ccc(Cl)cc2C2CC(C)=NN2C1=O (centres undefined) | – | – | Not Active | IC50 (Cholinesterase [3]): 12.8 µM; logD at 24 h [5]: 1.05
CC1Oc2c(Br)cc(Br)cc2C2CC(c3ccc(F)cc3)=NN2C1=O (centres undefined) | – | inactive | Not Active | –
